# pIC50: −log10 of the molar value. Active and inactive are the calls of the source. The rule behind the calls is not given here.
# Assays:
# [1] = Metabolic stability in rat liver microsomes assessed as half life at 10 uM measured at 5 to 60 mins by LC-MS/MS analysis; type: ADME, Microsome; conditions: time 5-60 min
# [2] = Induction of apoptosis in human Osimertinib-resistant NCI-H1975 cell assessed as necrotic cells at 500 nM measured after 16 hrs by Annexin V-FITC and PI staining based analysis (reference value: 0.50%); type: functional
# NCI-H1975 = assay: Downregulation of Mcl-1 level in human Osimertinib-resistant NCI-H1975 cell at 500 nM measured after 8 hrs by Western blotting analysis; type: functional, cell-based
# [3] = Induction of apoptosis in human Osimertinib-resistant NCI-H1975 cell assessed as early apoptotic cells at 125 nM measured after 16 hrs in presence of osimertinib by Annexin V-FITC and PI staining based analysis (Rvb =1.78%); type: functional
# [4] = molecular target: CDK12/Cyclin K (Homo sapiens) (UniProt O75909+Q9NYV4); assay: Inhibition of CDK12/cyclin K (unknown origin) at 200 nM preincubated for 10 mins followed by substrate addition and measured after 60 mins in presence of ATP by ADP-Glo reagent based assay relative to control; type: protein-complex assay; conditions: time 70.0 min
# CDK12/Cyclin K (Homo sapiens), sequence (O75909 whole entry, looked up): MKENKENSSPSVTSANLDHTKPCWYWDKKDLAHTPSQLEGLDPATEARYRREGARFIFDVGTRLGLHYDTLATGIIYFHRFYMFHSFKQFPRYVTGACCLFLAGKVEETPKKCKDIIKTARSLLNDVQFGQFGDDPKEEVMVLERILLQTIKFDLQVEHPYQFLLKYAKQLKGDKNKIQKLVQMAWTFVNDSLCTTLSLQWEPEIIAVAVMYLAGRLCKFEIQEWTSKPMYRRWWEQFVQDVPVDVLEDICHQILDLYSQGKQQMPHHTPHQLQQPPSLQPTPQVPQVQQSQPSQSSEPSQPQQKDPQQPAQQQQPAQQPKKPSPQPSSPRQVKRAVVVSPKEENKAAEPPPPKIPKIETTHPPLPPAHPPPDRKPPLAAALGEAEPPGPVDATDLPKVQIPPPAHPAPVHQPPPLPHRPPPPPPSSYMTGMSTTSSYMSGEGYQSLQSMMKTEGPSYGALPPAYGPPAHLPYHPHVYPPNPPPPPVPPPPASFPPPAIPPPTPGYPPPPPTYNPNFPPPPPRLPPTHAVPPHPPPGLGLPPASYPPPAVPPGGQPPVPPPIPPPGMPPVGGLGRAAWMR
# CDK12/Cyclin K (Homo sapiens), sequence (Q9NYV4 whole entry, looked up): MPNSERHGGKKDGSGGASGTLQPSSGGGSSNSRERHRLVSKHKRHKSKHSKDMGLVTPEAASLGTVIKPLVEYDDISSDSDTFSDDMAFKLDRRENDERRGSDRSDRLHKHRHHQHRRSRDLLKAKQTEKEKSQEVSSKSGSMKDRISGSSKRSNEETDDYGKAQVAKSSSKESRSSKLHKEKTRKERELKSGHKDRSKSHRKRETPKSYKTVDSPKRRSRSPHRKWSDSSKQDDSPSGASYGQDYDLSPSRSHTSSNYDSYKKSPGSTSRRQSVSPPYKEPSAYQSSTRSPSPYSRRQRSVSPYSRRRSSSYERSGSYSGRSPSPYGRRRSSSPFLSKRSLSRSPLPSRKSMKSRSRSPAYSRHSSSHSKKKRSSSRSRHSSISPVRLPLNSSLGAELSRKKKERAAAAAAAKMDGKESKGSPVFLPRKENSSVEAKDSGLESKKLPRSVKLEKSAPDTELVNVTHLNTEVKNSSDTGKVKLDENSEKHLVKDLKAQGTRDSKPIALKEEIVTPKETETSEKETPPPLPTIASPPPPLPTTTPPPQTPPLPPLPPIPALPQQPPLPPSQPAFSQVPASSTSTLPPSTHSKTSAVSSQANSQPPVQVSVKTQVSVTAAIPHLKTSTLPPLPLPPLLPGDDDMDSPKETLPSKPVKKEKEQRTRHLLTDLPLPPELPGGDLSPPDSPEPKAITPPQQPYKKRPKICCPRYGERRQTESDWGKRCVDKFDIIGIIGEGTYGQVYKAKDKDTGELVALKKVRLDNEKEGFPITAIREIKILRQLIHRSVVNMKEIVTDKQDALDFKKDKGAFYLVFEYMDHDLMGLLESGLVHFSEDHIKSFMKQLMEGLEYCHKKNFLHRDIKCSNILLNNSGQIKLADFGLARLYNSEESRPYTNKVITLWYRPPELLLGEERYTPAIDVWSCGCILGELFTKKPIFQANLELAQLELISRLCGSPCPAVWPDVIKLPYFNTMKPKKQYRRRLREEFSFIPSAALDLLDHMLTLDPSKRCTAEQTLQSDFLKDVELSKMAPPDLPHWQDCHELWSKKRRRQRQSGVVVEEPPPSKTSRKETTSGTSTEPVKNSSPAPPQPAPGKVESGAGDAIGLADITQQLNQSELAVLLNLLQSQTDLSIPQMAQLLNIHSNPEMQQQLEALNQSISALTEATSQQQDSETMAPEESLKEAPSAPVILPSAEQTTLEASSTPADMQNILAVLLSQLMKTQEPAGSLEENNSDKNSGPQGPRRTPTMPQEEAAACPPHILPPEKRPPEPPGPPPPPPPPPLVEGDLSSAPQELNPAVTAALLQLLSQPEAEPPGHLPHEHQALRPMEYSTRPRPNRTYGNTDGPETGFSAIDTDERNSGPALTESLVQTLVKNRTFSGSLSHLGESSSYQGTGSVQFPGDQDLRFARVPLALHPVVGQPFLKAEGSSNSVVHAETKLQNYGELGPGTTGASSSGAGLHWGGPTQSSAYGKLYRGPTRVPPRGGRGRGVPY
# [5] = Downregulation of Mcl-1 level in human Osimertinib-resistant NCI-H1975 cell at 500 nM measured after 8 hrs by Western blotting analysis relative to control; type: functional
# [6] = Antiproliferative activity against human Osimertinib-resistant NCI-H1975 cell assessed as cell growth inhibition incubated for 72 hrs by MTT assay; type: functional, cell-based; conditions: NCI-H1975, 72 h
# [7] = Antiproliferative activity against 3D-cultured human Osimertinib-resistant HCC827 cell incubated for 72 hrs by MTT assay; type: functional, cell-based; conditions: Osimertinib-resistant HCC827AR cell
# [8] = Antiproliferative activity against human Osimertinib-resistant NCI-H1975 cell assessed as cell growth inhibition incubated for 72 hrs in presence of osimertinib by MTT assay; type: functional, cell-based; conditions: NCI-H1975, 72 h
# [9] = molecular target: Dual specificity protein kinase CLK1 (Homo sapiens) (UniProt P49759); assay: Inhibition of CLK1 (unknown origin) at 500 nM preincubated for 10 mins followed by substrate addition and measured after 60 mins in presence of ATP by ADP-Glo reagent based assay relative to control; conditions: time 70.0 min
# Dual specificity protein kinase CLK1 (Homo sapiens), sequence (P49759 whole entry, looked up): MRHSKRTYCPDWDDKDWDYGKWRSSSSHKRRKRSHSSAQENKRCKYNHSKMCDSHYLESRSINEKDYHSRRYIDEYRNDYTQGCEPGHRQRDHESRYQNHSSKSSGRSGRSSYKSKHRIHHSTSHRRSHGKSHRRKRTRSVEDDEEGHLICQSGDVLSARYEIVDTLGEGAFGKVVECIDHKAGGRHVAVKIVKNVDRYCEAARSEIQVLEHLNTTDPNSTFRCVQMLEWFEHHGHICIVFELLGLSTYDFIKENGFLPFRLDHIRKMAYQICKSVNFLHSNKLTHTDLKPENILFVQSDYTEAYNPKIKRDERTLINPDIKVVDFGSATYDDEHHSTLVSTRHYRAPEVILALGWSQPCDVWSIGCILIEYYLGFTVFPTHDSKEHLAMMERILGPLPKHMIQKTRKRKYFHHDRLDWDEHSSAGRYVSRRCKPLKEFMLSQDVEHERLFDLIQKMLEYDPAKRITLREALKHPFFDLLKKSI
# [10] = molecular target: CDK6/cyclin D1 (Homo sapiens) (UniProt P24385+Q00534); assay: Inhibition of CDK6/cyclin D1 (unknown origin) at 200 nM preincubated for 10 mins followed by substrate addition and measured after 60 mins in presence of ATP by ADP-Glo reagent based assay relative to control; type: protein-complex assay; conditions: time 70.0 min
# [11] = Toxicity in ICR mouse assessed as effect on body weight loss at 100 mg/kg, iv measured for 8 to 9 days; type: organism-based; conditions: in vivo, time 8-9 day
# [12] = molecular target: Cyclin-dependent kinase 9 (Homo sapiens) (UniProt P50750); assay: Inhibition of CDK9 in human Osimertinib-resistant NCI-H1975 cell assessed as suppression of p-RNAP II phosphorylation at Ser2 residue incubated for 8 hrs by Western blot analysis; type: cell-based; conditions: dose 0.05-1 µM
# Cyclin-dependent kinase 9 (Homo sapiens), sequence (P50750 whole entry): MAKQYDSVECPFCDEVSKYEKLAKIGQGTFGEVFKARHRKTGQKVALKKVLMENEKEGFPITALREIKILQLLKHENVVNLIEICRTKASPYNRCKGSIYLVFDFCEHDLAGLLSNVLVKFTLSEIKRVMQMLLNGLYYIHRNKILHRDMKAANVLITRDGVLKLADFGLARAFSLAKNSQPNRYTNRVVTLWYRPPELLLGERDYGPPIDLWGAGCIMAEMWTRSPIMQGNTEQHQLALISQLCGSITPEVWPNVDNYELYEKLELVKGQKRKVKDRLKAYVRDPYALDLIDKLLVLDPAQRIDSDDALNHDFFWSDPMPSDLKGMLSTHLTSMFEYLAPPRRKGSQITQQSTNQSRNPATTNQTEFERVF
# [13] = Induction of apoptosis in human Osimertinib-resistant NCI-H1975 cell assessed as late apoptotic cells at 2000 nM measured after 16 hrs by Annexin V-FITC and PI staining based analysis (reference value: 2.84%); type: functional
# [14] = Toxicity in ICR mouse assessed as morphological changes in kidney at 1000 mg/kg, po measured after 9 days by H and E staining based analysis; type: organism-based; conditions: in vivo, 216 h, time 9 day
smiles,measurement,setting,value
O=C(NCCN1CCOCC1)c1ccc2cc1OCCCCCCOc1cc(ccc1F)-c1nc(ncc1F)N2,half-life at 10 µM,[1],6.8 min
same,Activity,[2],2.92%
same,Activity,NCI-H1975,Active
same,Activity,[3],3.15%
same,inhibition,[4],56.4%
same,Activity,[5],90%
same,pIC50,[6],6.72
same,pIC50,[7],6.48
same,pIC50,[8],7.08
same,inhibition,[9],96.5%
same,inhibition,[10],29.3%
same,Activity,[11],Non-Toxic
same,inhibition,[12],Dose-Dependent Effect
same,Activity,[13],13.7%
same,Activity,[14],Non-Toxic
